Data as given in ChEMBL document CHEMBL1201862, “PubChem BioAssay data set” (2004).
Activity calls are given as the source filed them.

Assays:
[1] = biological target: Lysine-specific demethylase 4A (Homo sapiens, UniProt O75164); assay: inhibition of JMJD2A H3K9me3 demethylation – biochemical, DELFIA europium, cherry-picked samples, selectivity assay for GASC-1 inhibitor project, dose response (AID 488840)
[2] = biological target: T1, Lysine-specific demethylase 4C (Homo sapiens, UniProt Q9H3R0); assay: inhibition of JMJD2C H3K9me3 demethylation – biochemical, DELFIA europium, cherry-picked samples, dose response (AID 488835); format: functional
T1 sequence (Q9H3R0 whole entry): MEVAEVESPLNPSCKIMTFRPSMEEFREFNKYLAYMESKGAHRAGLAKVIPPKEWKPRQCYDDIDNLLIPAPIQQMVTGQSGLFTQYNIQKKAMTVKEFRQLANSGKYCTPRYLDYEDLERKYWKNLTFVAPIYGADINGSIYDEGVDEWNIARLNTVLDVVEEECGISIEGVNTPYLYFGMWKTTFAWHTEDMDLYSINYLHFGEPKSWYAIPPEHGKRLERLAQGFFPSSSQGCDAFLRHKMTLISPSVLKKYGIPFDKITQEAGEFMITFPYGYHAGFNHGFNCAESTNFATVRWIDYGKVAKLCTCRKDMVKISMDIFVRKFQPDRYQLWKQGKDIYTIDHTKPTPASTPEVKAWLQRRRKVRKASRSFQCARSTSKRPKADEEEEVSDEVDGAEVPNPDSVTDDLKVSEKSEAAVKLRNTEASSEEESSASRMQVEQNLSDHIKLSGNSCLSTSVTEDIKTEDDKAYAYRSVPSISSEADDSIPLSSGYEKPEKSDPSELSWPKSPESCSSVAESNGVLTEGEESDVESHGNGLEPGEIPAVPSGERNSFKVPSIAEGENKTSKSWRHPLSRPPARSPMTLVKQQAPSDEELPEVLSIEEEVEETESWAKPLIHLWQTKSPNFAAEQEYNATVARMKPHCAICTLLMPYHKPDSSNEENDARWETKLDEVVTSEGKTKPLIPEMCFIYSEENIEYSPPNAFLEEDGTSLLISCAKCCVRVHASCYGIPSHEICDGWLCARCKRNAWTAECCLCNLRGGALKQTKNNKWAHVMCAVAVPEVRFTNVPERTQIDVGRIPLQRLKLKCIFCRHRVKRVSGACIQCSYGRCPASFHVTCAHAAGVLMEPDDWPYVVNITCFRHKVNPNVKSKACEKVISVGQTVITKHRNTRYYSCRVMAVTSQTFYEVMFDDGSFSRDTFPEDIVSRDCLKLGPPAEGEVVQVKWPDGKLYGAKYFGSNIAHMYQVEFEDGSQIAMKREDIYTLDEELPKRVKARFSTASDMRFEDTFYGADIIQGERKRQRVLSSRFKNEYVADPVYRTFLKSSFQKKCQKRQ

[3] = biological target: T2, Fatty acid synthase (Homo sapiens, UniProt P49327); assay: inhibition of human FAS-TE enzyme activity – biochemical, endpoint fluorescence intensity, uHTS hits, dose response (AID 624327); format: functional;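 also: fluorescence from hydrolysis of an O-methyl fluorescein acyl ester substrate by the enzyme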
[4] = biological target: T2, Fatty acid synthase; assay: inhibition of human FAS-TE enzyme activity – biochemical, kinetic fluorescence intensity, dose response (AID 624326); format: functional;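 also: rate of fluorescence rise from hydrolysis of a fluorogenic O-methyl fluorescein ester substrate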
[5] = biological target: Cytochrome P450 2D6 (Homo sapiens, UniProt P10635);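 also: CYP2D6 member of a cytochrome P450 panel assay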
[6] = biological target: T3, Cannabinoid receptor 2 (Homo sapiens, UniProt P34972); assay: SAR analysis of antagonists of the Cannabinoid Receptor 2 using an Image-Based Assay - Set 2. [Related pubchem assays (depositor defined):AID1961, AID1965]; format: functional
[7] = biological target: T3, Cannabinoid receptor 2; assay: SAR analysis of agonists of the Cannabinoid Receptor 2 using an Image-Based Assay - Set 2. [Related pubchem assays (depositor defined):AID1961, AID1965]; format: functional
[8] = biological target: G-protein coupled receptor 55 (Homo sapiens, UniProt Q9Y2T6); assay: SAR analysis of selective Agonists of GPR55 using an Image-Based Assay. [Related pubchem assays (depositor defined):AID1961, AID1965]; format: functional
[9] = biological target: Cannabinoid receptor 1 (Homo sapiens, UniProt P21554); assay: SAR analysis of antagonists of the Cannabinoid Receptor 1 using an Image-Based Assay. [Related pubchem assays (depositor defined):AID1961, AID1965]; format: functional
[10] = biological target: T4, Delta-type opioid receptor (Homo sapiens, UniProt P41143); assay: HTS Image-Based Screen for Antagonists of the DOR Receptor. [Related pubchem assays (depositor defined):AID1777, AID1785, AID1786, AID2133]; format: functional
[11] = biological target: Mu-type opioid receptor (Homo sapiens, UniProt P35372); assay: HTS Image-Based Screen for Agonists of the MOR Receptor. [Related pubchem assays (depositor defined):AID1777, AID1785, AID1786, AID2133]; format: functional;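 also: imaging of beta-arrestin GFP recruitment into spots after receptor activation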
[12] = tested on: Streptococcus sp. 'group A'; assay: Streptococcus pyogenes SK(-)GAS viability under kanamycin – luminescence, BacTiterGlo, confirmation, counter-screen for streptokinase expression inhibitor project, dose response (AID 1900); format: functional, organism-based
[13] = biological target: T4, Delta-type opioid receptor; assay: HTS Image-Based Screen for Agonists of the DOR Receptor. [Related pubchem assays (depositor defined):AID1777, AID1786, AID2133]; format: functional
[14] = Trypanosoma cruzi growth suppression in host cells – NIH3T3 host cells, beta-gal luminescence, confirmation (AID 2044); format: functional, cell-based;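 also: intracellular parasites grown in NIH/3T3 mouse fibroblasts as host cells; luminescent beta-galactosidase reporter signal from transgenic T. cruzi replicating inside host cells; inhibitors lower the luminescence signal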
[15] = biological target: T5, Kappa-type opioid receptor (Homo sapiens, UniProt P41145); format: functional
[16] = NIH3T3 cell viability loss – ATP luminescence, mouse fibroblasts, counter-screen, dose response (AID 2010); format: functional, cell-based;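 also: cells exposed to compound for about 90 hours before reading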
[17] = biological target: Beta-galactosidase (Escherichia coli, UniProt Q8VNN2); format: functional
[18] = biological target: T5, Kappa-type opioid receptor; format: functional; remark: listed apart in the source
[19] = tested on: Streptococcus; assay: GAS UMAA2166 growth inhibition – luminescence, BacTiterGlo, counter-screen for streptokinase expression inhibitor project, dose response (AID 1915); format: functional, organism-based;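 also: potency for reduction of bacterial viability or growth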
[20] = tested on: Vero; assay: cells; format: functional, cell-based; conditions: Chlorocebus sabaeus
[21] = tested on: H9c2; assay: cells; format: functional, cell-based; conditions: Rattus norvegicus, H9c2, Myocardium;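 also: confirmatory concentration-response retest of ultra-high-throughput screening hits for modulation of myocardial damage; cell death induced by hydrogen peroxide oxidative stress; compound pretreatment for 60 min then peroxide exposure for 2 h; potency is for protecting the cells against peroxide damage rather than for killing them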
[22] = tested on: Vero; assay: cells; format: functional; conditions: Chlorocebus sabaeus

T2 sequence (P49327 whole entry): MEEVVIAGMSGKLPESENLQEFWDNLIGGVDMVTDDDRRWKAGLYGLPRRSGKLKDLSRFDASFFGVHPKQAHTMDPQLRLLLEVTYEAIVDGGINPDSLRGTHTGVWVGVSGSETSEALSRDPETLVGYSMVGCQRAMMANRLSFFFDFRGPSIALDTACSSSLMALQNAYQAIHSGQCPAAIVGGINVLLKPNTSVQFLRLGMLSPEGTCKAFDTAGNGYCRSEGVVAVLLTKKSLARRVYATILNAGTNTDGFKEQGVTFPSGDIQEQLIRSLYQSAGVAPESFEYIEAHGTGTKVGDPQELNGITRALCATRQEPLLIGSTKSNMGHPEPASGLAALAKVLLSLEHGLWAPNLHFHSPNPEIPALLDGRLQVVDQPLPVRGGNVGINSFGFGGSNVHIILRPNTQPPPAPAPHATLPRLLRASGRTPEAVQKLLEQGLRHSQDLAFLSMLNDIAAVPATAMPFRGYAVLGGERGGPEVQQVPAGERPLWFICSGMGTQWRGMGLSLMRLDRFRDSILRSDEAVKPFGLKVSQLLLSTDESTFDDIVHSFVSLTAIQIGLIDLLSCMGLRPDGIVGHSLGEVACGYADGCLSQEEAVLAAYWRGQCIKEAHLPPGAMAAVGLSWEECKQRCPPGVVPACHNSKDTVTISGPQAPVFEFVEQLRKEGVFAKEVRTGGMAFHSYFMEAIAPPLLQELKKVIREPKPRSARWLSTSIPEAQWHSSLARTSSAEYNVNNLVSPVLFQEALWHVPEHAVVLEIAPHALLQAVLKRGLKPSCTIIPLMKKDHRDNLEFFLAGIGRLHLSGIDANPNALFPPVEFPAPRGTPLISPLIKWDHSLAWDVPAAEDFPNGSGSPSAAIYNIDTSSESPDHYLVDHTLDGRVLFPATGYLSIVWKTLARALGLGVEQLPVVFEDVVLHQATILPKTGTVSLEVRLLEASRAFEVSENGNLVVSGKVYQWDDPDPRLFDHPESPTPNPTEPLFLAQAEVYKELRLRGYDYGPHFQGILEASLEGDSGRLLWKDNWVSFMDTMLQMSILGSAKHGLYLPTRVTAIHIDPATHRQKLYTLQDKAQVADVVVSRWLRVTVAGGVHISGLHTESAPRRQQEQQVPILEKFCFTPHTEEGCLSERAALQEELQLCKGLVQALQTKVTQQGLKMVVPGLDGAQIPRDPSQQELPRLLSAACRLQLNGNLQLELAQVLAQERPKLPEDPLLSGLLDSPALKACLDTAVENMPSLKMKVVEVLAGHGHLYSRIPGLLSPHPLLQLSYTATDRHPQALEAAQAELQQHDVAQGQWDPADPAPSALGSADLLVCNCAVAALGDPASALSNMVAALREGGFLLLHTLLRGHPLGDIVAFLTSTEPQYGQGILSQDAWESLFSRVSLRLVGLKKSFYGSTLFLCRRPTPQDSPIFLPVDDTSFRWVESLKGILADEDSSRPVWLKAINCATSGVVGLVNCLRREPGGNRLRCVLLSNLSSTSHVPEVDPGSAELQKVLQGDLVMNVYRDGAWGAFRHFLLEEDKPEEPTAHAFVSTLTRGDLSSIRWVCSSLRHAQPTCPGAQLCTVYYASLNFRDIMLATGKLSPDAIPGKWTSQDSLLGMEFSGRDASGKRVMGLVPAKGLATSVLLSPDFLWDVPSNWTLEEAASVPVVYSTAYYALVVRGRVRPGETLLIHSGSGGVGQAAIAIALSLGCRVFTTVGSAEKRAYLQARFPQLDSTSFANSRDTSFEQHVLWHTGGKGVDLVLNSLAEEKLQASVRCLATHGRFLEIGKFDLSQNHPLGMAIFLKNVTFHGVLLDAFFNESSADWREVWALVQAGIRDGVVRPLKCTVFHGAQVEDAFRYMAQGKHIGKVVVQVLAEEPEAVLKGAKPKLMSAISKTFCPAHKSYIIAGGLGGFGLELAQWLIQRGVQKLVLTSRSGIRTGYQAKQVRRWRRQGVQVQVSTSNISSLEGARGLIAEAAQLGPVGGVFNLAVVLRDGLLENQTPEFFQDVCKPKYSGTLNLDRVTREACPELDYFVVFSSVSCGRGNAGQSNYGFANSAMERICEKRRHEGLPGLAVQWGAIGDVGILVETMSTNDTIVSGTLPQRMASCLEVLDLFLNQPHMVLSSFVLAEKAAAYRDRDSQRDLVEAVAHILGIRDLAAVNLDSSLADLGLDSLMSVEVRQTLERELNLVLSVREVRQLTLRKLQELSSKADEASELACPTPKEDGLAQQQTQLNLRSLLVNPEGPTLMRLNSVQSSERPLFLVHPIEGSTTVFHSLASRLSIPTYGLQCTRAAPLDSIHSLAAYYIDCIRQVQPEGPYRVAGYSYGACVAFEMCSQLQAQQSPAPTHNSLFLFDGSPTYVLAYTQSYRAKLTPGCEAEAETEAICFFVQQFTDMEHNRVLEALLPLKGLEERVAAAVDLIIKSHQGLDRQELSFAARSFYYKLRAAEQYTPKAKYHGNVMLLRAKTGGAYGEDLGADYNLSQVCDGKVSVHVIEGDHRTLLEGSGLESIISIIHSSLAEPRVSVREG
T5 sequence (P41145 whole entry): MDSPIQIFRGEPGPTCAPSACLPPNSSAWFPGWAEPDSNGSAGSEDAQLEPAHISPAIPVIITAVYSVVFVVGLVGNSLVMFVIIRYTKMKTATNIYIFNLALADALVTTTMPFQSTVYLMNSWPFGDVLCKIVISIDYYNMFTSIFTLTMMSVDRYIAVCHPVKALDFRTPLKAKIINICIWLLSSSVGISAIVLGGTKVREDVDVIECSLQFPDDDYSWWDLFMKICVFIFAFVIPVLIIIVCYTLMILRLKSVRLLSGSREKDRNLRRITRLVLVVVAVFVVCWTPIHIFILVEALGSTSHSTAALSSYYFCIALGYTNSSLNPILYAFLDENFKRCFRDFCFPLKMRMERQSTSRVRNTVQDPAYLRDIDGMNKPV
T4 sequence (P41143 whole entry): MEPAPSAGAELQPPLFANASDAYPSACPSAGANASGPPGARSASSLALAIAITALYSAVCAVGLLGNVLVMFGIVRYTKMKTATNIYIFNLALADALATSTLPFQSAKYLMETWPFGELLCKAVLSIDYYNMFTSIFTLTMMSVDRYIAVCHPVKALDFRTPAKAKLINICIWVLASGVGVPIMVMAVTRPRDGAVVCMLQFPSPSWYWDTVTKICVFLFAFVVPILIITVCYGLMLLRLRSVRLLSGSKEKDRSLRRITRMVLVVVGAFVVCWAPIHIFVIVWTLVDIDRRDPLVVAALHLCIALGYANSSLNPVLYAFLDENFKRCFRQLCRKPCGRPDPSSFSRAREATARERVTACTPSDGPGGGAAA
T3 sequence (P34972 whole entry): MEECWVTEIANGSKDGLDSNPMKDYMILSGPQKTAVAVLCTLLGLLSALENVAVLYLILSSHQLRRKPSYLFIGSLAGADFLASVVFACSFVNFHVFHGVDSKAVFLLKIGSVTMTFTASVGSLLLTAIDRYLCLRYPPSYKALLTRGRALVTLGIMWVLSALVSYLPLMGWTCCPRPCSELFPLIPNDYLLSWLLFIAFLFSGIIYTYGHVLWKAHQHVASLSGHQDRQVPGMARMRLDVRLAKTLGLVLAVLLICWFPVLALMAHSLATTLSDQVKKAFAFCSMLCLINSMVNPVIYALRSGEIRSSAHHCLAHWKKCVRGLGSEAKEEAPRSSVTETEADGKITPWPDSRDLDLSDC
Sequence of Beta-galactosidase (Q8VNN2 whole entry): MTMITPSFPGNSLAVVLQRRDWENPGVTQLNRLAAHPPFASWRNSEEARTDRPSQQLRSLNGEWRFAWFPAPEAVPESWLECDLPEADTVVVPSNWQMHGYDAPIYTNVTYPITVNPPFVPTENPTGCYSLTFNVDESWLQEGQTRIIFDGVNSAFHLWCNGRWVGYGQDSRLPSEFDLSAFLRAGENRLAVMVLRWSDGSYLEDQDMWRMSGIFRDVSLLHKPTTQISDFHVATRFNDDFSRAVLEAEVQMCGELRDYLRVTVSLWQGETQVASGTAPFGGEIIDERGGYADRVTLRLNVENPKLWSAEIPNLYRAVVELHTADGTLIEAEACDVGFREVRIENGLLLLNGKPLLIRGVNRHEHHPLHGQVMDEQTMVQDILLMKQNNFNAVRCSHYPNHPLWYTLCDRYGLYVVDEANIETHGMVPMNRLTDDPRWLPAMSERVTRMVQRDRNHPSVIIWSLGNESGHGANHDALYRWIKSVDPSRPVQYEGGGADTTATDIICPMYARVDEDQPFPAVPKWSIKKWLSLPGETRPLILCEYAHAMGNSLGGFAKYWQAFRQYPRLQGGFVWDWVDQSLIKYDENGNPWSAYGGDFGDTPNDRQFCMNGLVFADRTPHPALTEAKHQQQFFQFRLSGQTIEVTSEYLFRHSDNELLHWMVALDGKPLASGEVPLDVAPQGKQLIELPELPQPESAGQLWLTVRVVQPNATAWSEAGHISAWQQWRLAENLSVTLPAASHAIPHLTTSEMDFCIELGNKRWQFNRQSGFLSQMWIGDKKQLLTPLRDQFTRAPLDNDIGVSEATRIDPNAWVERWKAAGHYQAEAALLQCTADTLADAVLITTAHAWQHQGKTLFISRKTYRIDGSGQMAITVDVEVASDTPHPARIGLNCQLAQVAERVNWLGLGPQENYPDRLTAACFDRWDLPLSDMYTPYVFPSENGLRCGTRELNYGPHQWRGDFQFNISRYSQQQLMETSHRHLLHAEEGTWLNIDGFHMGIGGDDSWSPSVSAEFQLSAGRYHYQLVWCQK
Sequence of G-protein coupled receptor 55 (Q9Y2T6 whole entry): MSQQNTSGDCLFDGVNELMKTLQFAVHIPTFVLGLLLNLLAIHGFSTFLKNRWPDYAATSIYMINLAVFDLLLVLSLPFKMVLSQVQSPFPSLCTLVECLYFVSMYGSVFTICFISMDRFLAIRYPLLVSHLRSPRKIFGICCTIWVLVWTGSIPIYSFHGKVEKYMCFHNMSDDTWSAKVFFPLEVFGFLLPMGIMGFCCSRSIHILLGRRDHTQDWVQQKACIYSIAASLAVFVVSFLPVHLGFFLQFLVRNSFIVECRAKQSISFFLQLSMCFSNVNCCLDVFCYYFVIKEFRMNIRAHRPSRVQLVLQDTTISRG

O=C(N/N=C/c1cc([N+](=O)[O-])cc([N+](=O)[O-])c1O)C(O)(c1ccccc1)c1ccccc1
AC50 [1]: 3.47 µM (active) | AC50 [2]: 2 µM (active) | IC50 [3]: 16.1 µM (active) | IC50 [4]: 8.77 µM (active)

O=C(c1ccccc1)c1nn(-c2ccccc2)c(=O)cc1C(F)(F)F
AC50 [5]: inconclusive

CCCN(CCC)Cc1c(C(=O)NN=C/C(C)=C\c2ccccc2)nnn1-c1nonc1N
IC50 [6]: > 32 µM (inactive) | EC50 [7]: > 32 µM (inactive) | EC50 [8]: 0.325 µM (active) | IC50 [9]: > 32 µM (inactive)

CC(Oc1ccc(Br)cc1)C(=O)Nc1nc(-c2ccccn2)cs1 (configuration not stated)
IC50 [10]: > 32 µM (inactive) | EC50 [11]: > 32 µM (inactive) | EC50 [12]: 0.211 µM (active) | EC50 [13]: > 32 µM (inactive) | EC50 [14]: 0.909 µM (active) | IC50 [15]: 5.42 µM (active) | EC50 [16]: 5.27 µM (active) | EC50 [17]: > 31.5 µM (inactive) | IC50 [18]: > 32 µM | EC50 [19]: 2.24 µM (active) | IC50 [20]: > 25 µM (active) | IC50 [21]: > 79 µM (inactive) | CC50 [22]: 9.95 µM (active)
